pKi: −log10 of the molar value.
Biological target: T1, M3 muscarinic receptor subtype (hM3) (Homo sapiens, UniProt P20309)
T1 construct: expressed in transfected cells
Assay: Radioligand binding assay ([3H]-NMS displacement, CHO cell membranes)
Conditions: [3H]-NMS 1 nM
Method: CHO cell lines stably expressing cloned human hM1, hM2, hM3 and hM4 muscarinic receptor subtypes, respectively, were grown to near confluency in medium consisting of HAM's F-12 supplemented with 10% FBS and 250 μg/mL Geneticin. The cells were grown in a 5% CO2, 37° C. incubator and lifted with 2 mM EDTA in dPBS. Cells were collected by 5 minute centrifugation at 650×g, and cell pellets were either stored frozen at −80° C. or membranes were prepared immediately. For membrane preparation, cell pellets were resuspended in lysis buffer and homogenized with a Polytron PT-2100 tissue disrupter (Kinematica AG; 20 seconds×2 bursts). Crude membranes were centrifuged at 40,000×g for 15 minutes at 4° C. […] The protein concentration of the membrane suspension was determined by the method described in Lowry, O. et al., Journal of Biochemistry 193:265 (1951). […]
Radioligand binding assays were performed in 96-well microtiter plates in a total assay volume of 100 μL. […] Filter plates were rinsed three times with wash buffer (10 mM HEPES) to remove unbound radioactivity. […] The plates were then counted in a PerkinElmer Topcount liquid scintillation counter (PerkinElmer Inc., Wellesley, Mass.). Binding data were analyzed by nonlinear regression analysis with the GraphPad Prism Software package (GraphPad Software, Inc., San Diego, Calif.) using the one-site competition model. […]

T1 sequence (P20309 whole entry): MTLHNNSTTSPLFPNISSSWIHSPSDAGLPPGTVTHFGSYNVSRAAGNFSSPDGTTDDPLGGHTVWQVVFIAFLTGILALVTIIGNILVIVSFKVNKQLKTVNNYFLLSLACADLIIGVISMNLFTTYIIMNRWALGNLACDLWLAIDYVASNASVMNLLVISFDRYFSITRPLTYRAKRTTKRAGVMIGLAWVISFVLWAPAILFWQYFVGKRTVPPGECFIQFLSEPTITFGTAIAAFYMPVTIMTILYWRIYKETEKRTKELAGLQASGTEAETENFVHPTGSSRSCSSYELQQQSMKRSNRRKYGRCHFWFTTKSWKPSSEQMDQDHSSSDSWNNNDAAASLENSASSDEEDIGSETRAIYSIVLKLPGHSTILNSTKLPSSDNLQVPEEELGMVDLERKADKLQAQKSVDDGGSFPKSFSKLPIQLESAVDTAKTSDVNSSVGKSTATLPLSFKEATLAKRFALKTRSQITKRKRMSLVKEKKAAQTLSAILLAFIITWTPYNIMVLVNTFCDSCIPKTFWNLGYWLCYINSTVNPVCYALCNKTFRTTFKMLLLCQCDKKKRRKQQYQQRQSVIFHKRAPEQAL

pKi: > 8.30
SMILES: CN(CCN1CCC(OC(=O)Nc2ccccc2-c2ccccc2)CC1)C(=O)CCCCCN1CCC(C(N)=O)CC1 [Example 1, Biphenyl-2-ylcarbamic Acid 1-(2-{[6-(4-Carbamoylpiperidin-1-yl)hexanoyl]methylamino}ethyl)piperidin-4-yl Ester]
